Measurements taken from patent US11230524B2, “Myocyte enhancer factor 2 (MEF2) modulators” (STANDARD LLC, priority 2017, dated 2022).
Counter-ions that a name gives are not always drawn.

Columns and labels:
Format in all cases: cell-based
[1] = molecular target: MEF2D/HDAC4 protein-protein interactions (Homo sapiens (Human), UniProt Q14814); test: Mammalian two-hybrid assay, inhibition of MEF2D and HDAC4 protein interactions (luciferase reporter in HeLa cells); conditions: HeLa cells co-transfected with GAL4-MEF2D, HDAC4-VP16 and Gal4Luc; overnight treatment; luciferase normalized to Renilla
Text: Detection of MEF2D and HDAC4 interactions. In this mammalian two-hybrid assay, HDAC4 and MEF2D proteins were used. […] Human epithelial carcinoma cells (HeLa) were co-transfected with the two DNA constructs (GAL4-MEF2D and HDAC4-VP16) and a reporter plasmid (Gal4Luc). […] MEF2D and HDAC4 protein interactions were detected as a result of the GAL4-MEF2D and HDAC4-VP16 protein complex binding a DNA promoter on the reporter plasmid (Gal4Luc) and driving cellular expression of a luciferase gene. The measured luciferase protein signal was proportional to the amount of MEF2D and HDAC4 protein interactions occurring with the cell.
The HDAC4 fragment lacked the catalytic domain so that the deacetylase activity was excluded from the assay.
Detection of inhibition of MEF2D and HDAC4 interactions. Next, the assay was used to test whether the compounds could disrupt the interactions between MEF2D and HDAC4. After co-expressing the GAL4-MEF2D and HDAC4-VP16 DNA constructs and reporter plasmid, the HeLa cells were treated with a test compound (10 μM) overnight. Cells transfected with the positive control GAL4VP16 fusion construct and reporter plasmid were also treated with the test compound (10 μM) overnight. As another control, DMSO was added (but kept below 0.2% V/V) to cells transfected with the positive GAL4VP16 fusion construct or the GAL4-MEF2D and HDAC4-VP16 DNA constructs. A luciferase assay was performed as described above according to the manufacturer's protocol (Promega). The luciferase response was normalized against the Renilla Luciferase as an internal control.
The relative activity and IC50 calculations. […] The relative activity, I, was the ratio of former to later, i.e. X/Y, expressed in percentile. […] The IC50 was the concentration of the compounds when X/Y equals 50.

[2] = test system: neonatal rat ventricular myocytes (NRVMs); test: Inhibition of fetal calf serum induced cardiomyocyte hypertrophy in vitro; conditions: serum-starved NRVMs, 5% FCS, myocyte size 48 hours after treatment, concentration reducing FCS-induced hypertrophy by 50%; for IC50: Rattus norvegicus, Ventricular myocyte
Method: To evaluate the ability of the test compounds to inhibit cardio myocyte hypertrophy in vitro, serum-starved neonatal rat ventricular myocytes (NRVMs) were exposed to medium with 5% Fetal Calf Serum (FCS), a powerful activator of myoctye growth (hypertrophy) and treated with one of the compounds at doses ranging from 0.2-10 μM or with the vehicle (dimethyl sulfoxide (DMSO)). Control cells received fresh media without serum. The myocyte size was determined 48 hours after treatment. The results in Table 7 show the concentrations of the test compounds required to reduce the FCS-induced hypertrophy in the NRVMs by 50% (IC50 μM).

[3] = molecular target: MEF2D/p300 protein-protein interactions (Homo sapiens (Human), UniProt Q14814); test: Mammalian two-hybrid assay, inhibition of MEF2D and P300 protein interactions (luciferase reporter in HeLa cells); conditions: HeLa cells co-transfected with GAL4-MEF2D, P300-VP16 and Gal4Luc
Text: Detection of MEF2D and P300 interactions. The same system that was used in Example 19 is used in here to detect MEF2D and P300 interactions. In this assay, two separate DNA constructs were made with MEF2D fused with the GAL4 DNA binding domain (GAL4-MEF2D) and P300 fused with the viral transactivator VP-16 ([…]). Human epithelial carcinoma cells (HeLa) were co-transfected with the two DNA constructs (GAL4-MEF2D and P300-VP16) and a reporter plasmid (Gal4Luc). […] MEF2D and P300 protein interactions were detected as a result of the GAL4-MEF2D and P300-VP16 protein complex binding a DNA promoter on the reporter plasmid (Gal4Luc) and driving cellular expression of a luciferase gene. The measured luciferase protein signal was proportional to the amount of MEF2D and P300 protein interactions occurring with the cell.
The relative activity and IC50 calculations. The IC50 concentrations were calculated in the same manner as described for Example 19.

Sequence of MEF2D/p300 protein-protein interactions (Q14814 whole entry, species assumed, the tested form may be a part): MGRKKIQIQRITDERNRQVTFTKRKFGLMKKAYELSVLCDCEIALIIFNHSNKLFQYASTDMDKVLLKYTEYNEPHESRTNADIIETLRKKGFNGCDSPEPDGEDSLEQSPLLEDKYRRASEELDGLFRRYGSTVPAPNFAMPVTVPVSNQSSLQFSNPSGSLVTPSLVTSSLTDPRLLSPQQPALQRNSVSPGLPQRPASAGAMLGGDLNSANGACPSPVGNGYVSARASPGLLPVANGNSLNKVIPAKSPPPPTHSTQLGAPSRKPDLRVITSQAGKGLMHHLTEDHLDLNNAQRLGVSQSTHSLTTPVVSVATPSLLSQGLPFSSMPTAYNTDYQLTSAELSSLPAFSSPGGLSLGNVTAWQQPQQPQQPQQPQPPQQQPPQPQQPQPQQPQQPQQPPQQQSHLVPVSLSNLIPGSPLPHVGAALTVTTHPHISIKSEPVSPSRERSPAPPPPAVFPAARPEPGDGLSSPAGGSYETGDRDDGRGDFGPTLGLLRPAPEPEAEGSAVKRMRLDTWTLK
Sequence of MEF2D/HDAC4 protein-protein interactions (Q14814 whole entry, species assumed, the tested form may be a part): as above

Row | Compound | IC50 [1] | IC50 [3] | IC50 [2] | IC50, inhibition of cardiomyocyte hypertrophy in vitro [2]
1 | Nc1ccccc1NC(=O)/C=C/c1cccc(CNc2ccccc2)c1 [ST1, (E)-N-(2-aminophenyl)-3-(3-((phenylamino)methyl)phenyl)acrylamide] | 9.4 µM | 0.38 µM | 0.81 µM | 
2 | CCOc1cccc(NCc2cccc(/C=C/C(=O)Nc3ccccc3N)c2)c1 [ST4, (E)-N-(2-aminophenyl)-3-(3-(((3-ethoxyphenyl)amino)methyl)phenyl)acrylamide] | 1.07 µM | 1.1 µM | 4.37 µM | 
3 | Nc1ccccc1NC(=O)/C=C/c1cccc(CNc2cccc(OC3CC3)c2)c1 [ST7, (E)-N-(2-aminophenyl)-3-(3-(((3-cyclopropoxyphenyl)amino)methyl)phenyl)acrylamide] | 1.6 µM | 1.6 µM | 0.46 µM | 
4 | Nc1ccccc1NC(=O)/C=C/c1cccc(CNCc2cccc(OC3CC3)c2)c1 [ST13] | 1.52 µM | 0.79 µM | 0.12 µM | 
5 | Nc1ccccc1NC(=O)/C=C/c1cccc(CNCc2cccc(OC3CCC3)c2)c1 [ST14] | 1.52 µM | 0.94 µM | 0.15 µM | 
6 | Cc1[nH]c2ccccc2c1CCNCc1cccc(/C=C/C(=O)Nc2ccccc2N)c1 [ST49, (E)-N-(2-aminophenyl)-3-(3-(((2-(2-methyl-1H-indol-3-yl)ethyl)amino)methyl)phenyl)acrylamide] |  |  | 1.23 µM | 
7 | Nc1ccccc1NC(=O)/C=C/c1cccc(CNc2ccc3ccccc3c2)c1 [ST54, (E)-N-(2-aminophenyl)-3-(3-((naphthalen-2-ylamino)methyl)phenyl) Acrylamide] |  |  | 1.16 µM | 
8 | Nc1ccccc1NC(=O)/C=C/c1cccc(CNc2ccc3ncccc3c2)c1 [ST55, (E)-N-(2-aminophenyl)-3-(3-((quinolin-6-ylamino)methyl)phenyl)acrylamide] | 4.53 µM | 0.51 µM | 9.26 µM | 
9 | Nc1ccccc1NC(=O)/C=C/c1cccc(CNc2nc(C(F)(F)F)co2)c1 [ST63, (E)-N-(2-aminophenyl)-3-(3-((4-(trifluoromethyl)oxazol-2-ylamino)methyl)phenyl)acrylamide] | 1.85 µM | 2.73 µM | 4.2 µM | 
10 | Cc1csc(NCc2cccc(/C=C/C(=O)Nc3ccccc3N)c2)n1 [ST66, (E)-N-(2-aminophenyl)-3-(3-((4-methylthiazol-2-ylamino)methyl)phenyl)acrylamide] | 2.48 µM | 1.69 µM | 1420 µM | 
11 | Nc1ccccc1NC(=O)CCCCC(NC(=O)c1ccccc1)C(=O)Nc1cccc(Br)c1 (stereo not drawn) [ST92, N^7-(2-aminophenyl)-2-benzamido-N^1-(3-bromophenyl)heptanediamide] | 0.81 µM | 0.47 µM |  | 
12 | Nc1ccccc1NC(=O)CCCCC(NC(=O)c1cccnc1)C(=O)Nc1cccc(Br)c1 (stereo not drawn) [ST93, N^7-(2-aminophenyl)-N^1-(3-bromophenyl)-2-(nicotinamido)heptanediamide] | 0.61 µM | 1.08 µM | 5500 µM | 
13 | CCCC(=O)N[C@@H](CCCCC(=O)NO)C(=O)Nc1cccc(Br)c1 [ST108] | 0.4 µM |  |  | 
14 | O=C(CCCCC(NC(=O)c1cccnc1)C(=O)Nc1cccc(Br)c1)NO (stereo not drawn) [ST109] | 0.68 µM |  |  | 
15 | CCCC(=O)NC(CCCCC(=O)NO)C(=O)Nc1cccc(Br)c1 (stereo not drawn) [ST110] | 0.42 µM |  |  | 
16 | O=C(CCCC[C@@H](NC(=O)c1ccccn1)C(=O)Nc1cccc(Br)c1)NO [ST111] | 0.94 µM |  |  | 
17 | CCOC(=O)N[C@H](CCCCC(=O)NO)C(=O)Nc1cccc(Br)c1 [ST112] | 0.61 µM |  |  | 
18 | CCOC(=O)NC(CCCCC(=O)NO)C(=O)Nc1cccc(Br)c1 (stereo not drawn) [ST113] | 0.26 µM |  |  | 
19 | CCC(=O)CNC(CCCCC(=O)NO)C(=O)Nc1cccc(Br)c1 (stereo not drawn) [ST114] | 1.25 µM |  |  | 
20 | Nc1ccccc1NC(=O)CCCCC(NC(=O)c1ccccc1)C(=O)Nc1cccnc1 (stereo not drawn) [ST120] | 1.56 µM |  |  | 
21 | Nc1ccccc1NC(=O)CCCCC(NC(=O)c1ccccn1)C(=O)Nc1cccnc1 (stereo not drawn) [ST122] | 1.62 µM |  |  | 
22 | O=C(CCCC[C@@H](NC(=O)c1ccccc1)C(=O)NC1CC1)NO [ST128] | 2.51 µM |  |  | 
23 | CCOC(=O)NC(CCCCC(=O)NCc1cncc(OCC)c1)C(=O)NCc1cncc(OCC)c1 (stereo not drawn) [ST129] | 20 µM | 20 µM |  | no inhibition

Further lines, with some results ahead:

Row | IC50 [1] | IC50 [3] | Compound | IC50 [2] | IC50, inhibition of cardiomyocyte hypertrophy in vitro [2]
24 | 0.84 µM | 0.44 µM | CCOC(=O)NC(CCCCC(=O)Nc1ccccc1N)C(=O)Nc1cccc(OC2CC2)c1 (stereo not drawn) [ST83, ethyl (7-((2-aminophenyl)amino)-1-((3-cyclopropoxyphenyl)amino)-1,7-dioxoheptan-2-yl)carbamate] | 3.85 µM | 
25 | 0.47 µM | < 0.15 µM | COC(=O)NC(CCCCC(=O)Nc1ccccc1N)C(=O)Nc1cccc(SC)c1 (stereo not drawn) [ST85, methyl (7-((2-aminophenyl)amino)-1-((3-(methylthio)phenyl)amino)-1,7-dioxoheptan-2-yl)carbamate] |  | 
26 | 0.77 µM | 0.071 µM | CCC(=O)NC(CCCCC(=O)Nc1ccccc1N)C(=O)Nc1cccc(Br)c1 (stereo not drawn) [ST89] |  | 
27 | 0.94 µM | 1.2 µM | COC(=O)NC(CCCCC(=O)Nc1ccccc1N)C(=O)Nc1cccc(OCC(F)(F)F)c1 (stereo not drawn) [ST102, methyl (7-((2-aminophenyl)amino)-1,7-dioxo-1-((3-(2,2,2-trifluoroethoxy)phenyl)amino)heptan-2-yl)carbamate hydrochloride] | 0.71 µM | 
28 | 0.47 µM | 0.38 µM | CCOC(=O)N[C@@H](CCCCC(=O)Nc1ccccc1N)C(=O)Nc1cccc(Br)c1 [ST104, (S)-ethyl (7-((2-aminophenyl)amino)-1-((3-bromophenyl)amino)-1,7-dioxoheptan-2-yl)carbamate] | 2.89 µM | 
29 | 0.54 µM |  | CCOC(=O)NC(CCCCC(=O)Nc1ccccc1N)C(=O)Nc1nc(-c2ccncc2)cs1 (stereo not drawn) [ST115] |  | 
30 | 0.57 µM | 0.27 µM | COC(=O)NC(CCCCC(=O)Nc1ccccc1N)C(=O)Nc1nc(-c2ccncc2)cs1 (stereo not drawn) [ST116, methyl (7-((2-aminophenyl)amino)-1,7-dioxo-1-((4-(pyridin-4-yl)thiazol-2-yl)amino)heptan-2-yl)carbamate] | 4400 µM | 
31 | 0.94 µM |  | CCOC(=O)NC(CCCCC(=O)Nc1ccccc1N)C(=O)Nc1cccc2cccnc12 (stereo not drawn) [ST117] |  | 
32 | 0.49 µM |  | CCOC(=O)NC(CCCCC(=O)Nc1ccccc1N)C(=O)Nc1ccc2ncccc2c1 (stereo not drawn) [ST118] |  | 
33 | 0.39 µM | 0.14 µM | COC(=O)NC(CCCCC(=O)Nc1ccccc1N)C(=O)Nc1cccc2cccnc12 (stereo not drawn) [ST119, methyl (7-((2-aminophenyl)amino)-1,7-dioxo-1-(quinolin-8-ylamino)heptan-2-yl)carbamate] | 0.079 µM | 
34 | 2.75 µM |  | Nc1ccccc1NC(=O)CCCCC(NC(=O)c1ccccc1)C(=O)Nc1ccncc1 (stereo not drawn) [ST121] |  | 
35 | 2 µM |  | CCOC(=O)NC(CCCCC(=O)Nc1ccccc1N)C(=O)Nc1cccnc1 (stereo not drawn) [ST123] |  | 
36 | 1.53 µM |  | CCOC(=O)NC(CCCCC(=O)Nc1ccccc1N)C(=O)Nc1cncc(OC)c1 (stereo not drawn) [ST124] |  | 
37 | 2.44 µM |  | CCOC(=O)NC(CCCCC(=O)Nc1ccccc1N)C(=O)Nc1ccncc1 (stereo not drawn) [ST125] |  | 
38 | 3.68 µM |  | CCOC(=O)NC(CCCCC(=O)Nc1ccccc1N)C(=O)Nc1ccccn1 (stereo not drawn) [ST126] |  | 
39 | 1.84 µM |  | CCOC(=O)NC(CCCCC(=O)Nc1ccccc1N)C(=O)Nc1cncc(OCC)c1 (stereo not drawn) [ST127] |  | 
